Source: ChEMBL document CHEMBL1201862, “PubChem BioAssay data set” (2004)
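Five compound concentrations were applied to cells in 96-well plates for 48 hours; endpoints were derived by simple linear interpolation of the resulting dose-response curve. Abbreviation: GI50, concentration required for 50% inhibition of growth.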 Activity calls are given as the source filed them. No stated cut-off is given here; in the data, active = GI50 up to about 1.1 µM and inactive = higher.

Key:
Test in all cases: NCI-60 cell line screen, 48 h
[1] = tested on: RXF 393
[2] = tested on: 786-0
[3] = tested on: MDA-MB-231
[4] = tested on: U-251
[5] = tested on: DU-145
[6] = tested on: SK-MEL-28
[7] = tested on: Hs-578T
[8] = tested on: UACC-257
[9] = tested on: BT-549
[10] = tested on: SW-620
[11] = tested on: T47D
[12] = tested on: HCT-15
[13] = tested on: A498
[14] = tested on: OVCAR-4
[15] = tested on: NCI/ADR-RES
[16] = tested on: ACHN
[17] = tested on: CCRF-CEM
[18] = tested on: LOX IMVI
[19] = tested on: EKVX

| Compound | GI50 [1] | GI50 [2] | GI50 [3] | GI50 [4] | GI50 [5] | GI50 [6] | GI50 [7] | GI50 [8] | GI50 [9] | GI50 [10] | GI50 [11] | GI50 [12] | GI50 [13] | GI50 [14] | GI50 [15] | GI50 [16] | GI50 [17] | GI50 [18] | GI50 [19] |
| --- | --- | --- | --- | --- | --- | --- | --- | --- | --- | --- | --- | --- | --- | --- | --- | --- | --- | --- | --- |
| CC(=O)CCC[C@@H](C)[C@@H]1O[C@H]([C@@]2(C)CCC(=O)O2)C[C@H]2C(CSc3ccccc3)C(=O)O[C@@H]12 (stereo not given in full) | 4.16 µM (inactive) | 12.9 µM (inactive) | 18.1 µM (inactive) | 16.9 µM (inactive) | 14.6 µM (inactive) | 18.7 µM (inactive) | 12.4 µM (inactive) | 13.4 µM (inactive) | 11.6 µM (inactive) | 10.3 µM (inactive) | 17.9 µM (inactive) | 17.3 µM | 27.4 µM (inactive) | 13.2 µM (inactive) | 17.7 µM (inactive) | 14.3 µM (inactive) | 3.3 µM (inactive) | 12.4 µM (inactive) | 9.98 µM (inactive) |
| C=CCN1C(=O)/C(=C/c2ccc(Cl)cc2)N=C1SC/C=C/C | 15.7 µM (inactive) | 33 µM (inactive) | 42.4 µM (inactive) | 27.4 µM (inactive) | 60.8 µM (inactive) | 53.2 µM (inactive) | 37.7 µM (inactive) | 37.8 µM (inactive) | 33.9 µM (inactive) | 31.8 µM (inactive) | 21 µM (inactive) | 34.2 µM | 33.9 µM (inactive) | 29.2 µM (inactive) | 35.2 µM (inactive) | 56.2 µM (inactive) | 39.8 µM (inactive) | 34 µM (inactive) | 26.4 µM (inactive) |
| Cc1cn(C2CC(n3cc(Cn4cc(Br)c(=O)[nH]c4=O)nn3)C(CO)O2)c(=O)[nH]c1=O (stereo not given) | > 100 µM (inactive) | 93.1 µM (inactive) | > 100 µM (inactive) | 39.1 µM (inactive) | > 100 µM (inactive) | > 100 µM (inactive) | > 100 µM (inactive) | > 100 µM (inactive) | > 100 µM (inactive) | > 100 µM (inactive) | > 100 µM (inactive) | > 100 µM | > 100 µM (inactive) | > 100 µM (inactive) | 68.2 µM (inactive) | > 100 µM (inactive) | 0.668 µM (active) | > 100 µM (inactive) | > 100 µM (inactive) |
| C[C@H](CCC(=O)O)[C@H]1CC[C@H]2[C@@H]3[C@H](O)[C@H](O)[C@@H]4C[C@H](O)CC[C@]4(C)[C@H]3CC[C@]12C [HYOCHOLIC ACID] | > 100 µM (inactive) | > 100 µM (inactive) | > 100 µM (inactive) | > 100 µM (inactive) | > 100 µM (inactive) | > 100 µM (inactive) | > 100 µM (inactive) | > 100 µM (inactive) | > 100 µM (inactive) | > 100 µM (inactive) | > 100 µM (inactive) | > 100 µM | > 100 µM (inactive) | > 100 µM (inactive) | > 100 µM (inactive) | > 100 µM (inactive) | > 100 µM (inactive) | 30.2 µM (inactive) | > 100 µM (inactive) |
| NC1=Nc2ccccc2Sc2nccn21 | 25.8 µM (inactive) | 24.6 µM (inactive) | 16.1 µM (inactive) | 32.8 µM (inactive) | 37.7 µM (inactive) | 35.8 µM (inactive) | 25.3 µM (inactive) | 31.8 µM (inactive) | 54.3 µM (inactive) | 32.3 µM (inactive) | 24.7 µM (inactive) | 25.2 µM | 28.2 µM (inactive) | 30.6 µM (inactive) | 30.5 µM (inactive) | 30 µM (inactive) | 27 µM (inactive) | 17.8 µM (inactive) | 27.7 µM (inactive) |
| COc1cc(Br)cc2nc(-c3cccs3)oc12 | 45.6 µM (inactive) | > 56 µM (inactive) | > 42.2 µM (inactive) | 42.1 µM (inactive) | > 100 µM (inactive) | > 100 µM (inactive) | 31.3 µM (inactive) | > 100 µM (inactive) | > 67.8 µM (inactive) | > 100 µM (inactive) | 6.15 µM (inactive) | 16.2 µM | > 55.3 µM (inactive) | > 26.9 µM (inactive) | > 100 µM (inactive) | > 83.8 µM (inactive) | > 100 µM (inactive) | > 100 µM (inactive) | > 61.9 µM (inactive) |
| C/C(=N\Nc1nc2ccccc2o1)c1ccc2ccccc2n1 | 18.5 µM (inactive) | 3.68 µM (inactive) | 2.98 µM (inactive) | 3.21 µM (inactive) | 4.41 µM (inactive) | 3.96 µM (inactive) | 27.4 µM (inactive) | 6.71 µM (inactive) | 20.7 µM (inactive) | 4.07 µM (inactive) | 0.279 µM (active) | 1.08 µM | 2.55 µM (inactive) | 1.3 µM (inactive) | 3.22 µM (inactive) | 1.47 µM (inactive) | 2.04 µM (inactive) | 2.86 µM (inactive) | 0.458 µM (active) |
| Cn1c(=O)c2nc(CCS)[nH]c2n(C)c1=O | 90.6 µM (inactive) | 51.2 µM (inactive) | > 100 µM (inactive) | > 100 µM (inactive) | > 100 µM (inactive) | > 100 µM (inactive) | 31.4 µM (inactive) | > 100 µM (inactive) | > 100 µM (inactive) | > 100 µM (inactive) | > 100 µM (inactive) | > 100 µM | > 100 µM (inactive) | > 100 µM (inactive) | > 100 µM (inactive) | > 100 µM (inactive) | 55 µM (inactive) | > 100 µM (inactive) | > 100 µM (inactive) |
| CC(=O)NNc1nc(C)c(C(/C=C/c2ccccc2O)=N/NC(=O)c2ccncc2)s1 | > 100 µM (inactive) | > 100 µM (inactive) | > 100 µM (inactive) | > 100 µM (inactive) | > 100 µM (inactive) | > 100 µM (inactive) | > 100 µM (inactive) | > 100 µM (inactive) | > 100 µM (inactive) | > 100 µM (inactive) | > 100 µM (inactive) | > 100 µM | > 100 µM (inactive) | > 100 µM (inactive) | > 100 µM (inactive) | > 100 µM (inactive) | > 100 µM (inactive) | > 100 µM (inactive) | > 100 µM (inactive) |
| C=CC1C(OC2OC(CO)C(O)C(O)C2O)OC=C(C(=O)OC)C1CC1CC(=O)CC(CCc2ccc(O)cc2)O1 (stereo not given) | > 100 µM (inactive) | > 100 µM (inactive) | > 100 µM (inactive) | > 100 µM (inactive) | > 100 µM (inactive) | > 100 µM (inactive) | > 100 µM (inactive) | > 100 µM (inactive) | > 100 µM (inactive) | > 100 µM (inactive) | > 100 µM (inactive) | > 100 µM | > 100 µM (inactive) | > 100 µM (inactive) | > 100 µM (inactive) | > 100 µM (inactive) | > 100 µM (inactive) | > 100 µM (inactive) | > 100 µM (inactive) |
| O=c1[nH]c2cc(Cl)ccc2nc1/C(=N/Nc1ccccc1)C(O)c1ccco1 (stereo not given) | > 100 µM (inactive) | > 100 µM (inactive) | > 100 µM (inactive) | > 100 µM (inactive) | > 100 µM (inactive) | > 100 µM (inactive) | > 100 µM (inactive) | > 100 µM (inactive) | > 100 µM (inactive) | > 100 µM (inactive) | > 100 µM (inactive) | > 100 µM | > 100 µM (inactive) | > 100 µM (inactive) | > 100 µM (inactive) | > 100 µM (inactive) | > 100 µM (inactive) | > 100 µM (inactive) | > 100 µM (inactive) |
| COC(=O)c1cc(C)n(CN(Cc2ccccc2)Cn2nc(C(=O)OC)cc2C)n1 | > 53.7 µM (inactive) | 68.1 µM (inactive) | > 100 µM (inactive) | > 100 µM (inactive) | > 62.1 µM (inactive) | > 81.5 µM (inactive) | > 100 µM (inactive) | > 100 µM (inactive) | > 100 µM (inactive) | > 46.9 µM (inactive) | > 48.3 µM (inactive) | > 40.7 µM | > 100 µM (inactive) | > 64.1 µM (inactive) | > 100 µM (inactive) | > 43.1 µM (inactive) | 17.1 µM (inactive) | > 100 µM (inactive) | 66.5 µM (inactive) |
| CC(C)(C)C1=CC(=CC=C2C=CN(CCCCCCCCCCCO)C=C2)C=C(C(C)(C)C)C1=O | 0.9 µM (active) | 1.26 µM (inactive) | 1.63 µM (inactive) | 0.782 µM (active) | 2.88 µM (inactive) | 1.78 µM (inactive) | 1.87 µM (inactive) | 1.87 µM (inactive) | 2.12 µM (inactive) | 2.19 µM (inactive) | 0.498 µM (active) | 2.6 µM | 3.01 µM (inactive) | 1.76 µM (inactive) | 2.96 µM (inactive) | 2.19 µM (inactive) | 0.652 µM (active) | 0.735 µM (active) | 1.96 µM (inactive) |
| COc1cc2c(cc1OCCCNC(=O)c1cc3ccccc3[nH]1)N=C[C@@H]1CCCN1C2=O | 0.0966 µM (active) | 0.237 µM (active) | 0.466 µM (active) | 0.148 µM (active) | 0.223 µM (active) | 0.318 µM (active) | 0.23 µM (active) | 0.448 µM (active) | 0.0736 µM (active) | 0.378 µM (active) | 0.229 µM (active) | 0.897 µM | 0.0527 µM (active) | 0.403 µM (active) | 2.04 µM (inactive) | 0.347 µM (active) | 0.193 µM (active) | 0.421 µM (active) | 1.02 µM (active) |
| O=C(O)c1c(O)c2cc(Br)ccc2oc1=O | > 100 µM (inactive) | > 100 µM (inactive) | > 100 µM (inactive) | > 100 µM (inactive) | > 100 µM (inactive) | > 100 µM (inactive) | > 100 µM (inactive) | > 100 µM (inactive) | > 100 µM (inactive) | > 100 µM (inactive) | > 100 µM (inactive) | > 100 µM | > 100 µM (inactive) | > 100 µM (inactive) | > 100 µM (inactive) | > 100 µM (inactive) | > 100 µM (inactive) | > 100 µM (inactive) | > 100 µM (inactive) |
